Patent publication US20260042746A1, “2(1H)-PYRIDINIMINE DERATIVE” (SUMITOMO PHARMA CO., LTD., priority 2022, published 2026)

System: α-synuclein aggregate
Assay: Test 2: suppressing the accumulation of α-synuclein aggregate in neurospheroid from PLA2G6 mutant human iPS cells
Assay type: cell-based
Conditions: compound added day 4, measured day 9, DMSO = 100%; for activity at 0.1 µM: 100 nM, read-out: Amount of aggregate (%) 100 nM; for activity at 1 µM: 1000 nM, read-out: Amount of aggregate (%) 1000 nM
Protocol: Test 2: Evaluation of Suppressing the Accumulation of α-Synuclein Aggregate with Neurospheroid Prepared from Human iPS Cells with a Mutation in PLA2G6 Gene
(1) Induction of Differentiation from Human iPS Cell to Neural Cell
Neural stem cells were induced from PLA2G6 gene mutant iPS cells with PSC Neuronal Induction Medium (Thermo Fisher Scientific Inc., cat #A1647801). Neurospheroid was prepared from the induced neural stem cells by three-dimensional culture system, and preserved with BrainPhys Neuronal Medium (STEMCELL Technologies, cat #ST-05793) comprising NeuroCult SM1 Neuronal Supplement, N2 Supplement-A, 20 ng/mL BDNF, 20 ng/mL GDNF, 1 mM dibutyryl cAMP, and 200 nM ascorbic acid. Half of the culture medium was replaced on day 2 and day 4 after the induction of differentiation.
The test compound was diluted with the culture medium so as to be twice the final concentration, and an equal volume of the twice-concentrated solution was added to each well when half of the culture medium was replaced on day 4 after induction of differentiation.
(2) Evaluation of the Amount of α-Synuclein Aggregate
From the neurospheroid 9 days after the induction of differentiation, proteins were extracted with a TBS solution containing 1% TritionX-100, and the extracted proteins were subjected to a protein analysis with Simple Western system (Protein Simple, Inc., cat #SM-W008) using an α-synuclein antibody (Thermo Fisher Scientific Inc., cat #AHB0261) to measure the amount of the α-synuclein aggregate.
Assuming that the amount of the aggregate in the neurospheroid added with a DMSO solution is 100%, the amount of the aggregate in the neurospheroid added with each test compound was evaluated.

| SMILES | activity at 0.1 µM | activity at 1 µM |
| --- | --- | --- |
| CN1CC(C)(C(=O)/N=c2\cc(OC(F)(F)F)ccn2C)C1 [Example 54] | 18% | 13% |
| CCn1ccc(OC)c/c1=N\C(=O)C1(C)COC1 [Example 10] | 25% | 8% |
| CCC1(C(=O)/N=c2\cc(C)c(C)cn2C)COC1 [Example 35] | 95% | 97% |
| Cn1cc(Cl)cc/c1=N\C(=O)C1(C)COC1 [Example 32] | 33% | 31% |
| Cn1cc(C(F)(F)F)cc/c1=N\C(=O)C1(C)COC1 [Example 26] | 23% | 38% |
| Cn1cccc/c1=N\C(=O)C1CNC1 [Example 66] | 61% | 66% |
| Cn1cccc/c1=N\C(=O)N1CCOCC1 [Example 61, N-[(2E)-1-methylpyridin-2(1H)-ylidene]morpholine-4-carboxamide] | 73% | 53% |
| CCOc1ccn(C)/c(=N/C(=O)C2(CC)COC2)c1 [Example 13] | 33% | 13% |
| Cn1cccc/c1=N\C(=O)C1(C)CNC1 [Example 43, 3-Methyl-N-[(2E)-1-methylpyridin-2(1H)-ylidene]azetidine-3-carboxamide] | 49% | 57% |
| CCC1(C(=O)/N=c2\cc(OC)c(Cl)cn2C)COC1 [Example 41] | 18% | 45% |
| CCn1ccc(Cl)c/c1=N\C(=O)C1(CC)COC1 [Example 23] | 56% | 11% |
| Cn1cc(C(F)(F)F)cc/c1=N\C(=O)C1(C)CNC1 [Example 48] | 63% | 68% |
| CCC1(C(=O)/N=c2\cc(F)ccn2C)COC1 [Example 17] | 77% | 7% |
| Cn1cccc/c1=N\C(=O)C1CCNCC1 [Example 68] | 80% | 31% |
| CCC1(C(=O)/N=c2\cc(C)ccn2C)COC1 [Example 5] | 113% | 91% |
| Cc1c/c(=N\C(=O)C2(C)CN(C)C2)n(C)cc1C [Example 57] | 13% | 31% |
| Cc1c/c(=N\C(=O)C2(C)COC2)n(C)cc1F [Example 36] | 13% | 16% |
| CCn1ccc(OC)c/c1=N\C(=O)C1(C)CN(C)C1 [Example 52] | 68% | 60% |
| CCC1(C(=O)/N=c2\ccc(Cl)cn2C)COC1 [Example 33] | 33% | 50% |
| CCn1ccc(OC)c/c1=N\C(=O)C1(CC)COC1 [Example 11] | 65% | 7% |
| CCC1(C(=O)/N=c2\ccc(C)cn2C)COC1 [Example 25] | 73% | 21% |
| CCC1(C(=O)/N=c2\ccc(OC)cn2C)COC1 [Example 29] | 89% | 33% |
| Cn1cccc/c1=N\C(=O)C1(C)CN(CC(F)(F)F)C1 [Example 73, 3-Methyl-N-[(2E)-1-methylpyridin-2(1H)-ylidene]-1-(2,2,2-trifluoroethyl)azetidine-3-carboxamide] | 79% | 76% |
| CCn1ccc(F)c/c1=N\C(=O)C1(C)COC1 [Example 18] | 30% | 26% |
| Cn1ccc(F)c/c1=N\C(=O)C1(C)COC1 [Example 16] | 73% | 62% |
| CCC1(C(=O)/N=c2\cc(C)c(F)cn2C)COC1 [Example 37] | 29% | 53% |
| COc1ccn(C)/c(=N/C(=O)C2(C)COC2)c1 [Example 8] | 58% | 61% |

| SMILES | activity at 0.1 µM | activity at 1 µM |
| --- | --- | --- |
| Cc1cc/c(=N\C(=O)C2(C)CN(C)C2)n(C)c1 [Example 55] | 92% | 74% |
| CCC1(C(=O)/N=c2\cc(C)c(Br)cn2C)COC1 [Example 39] | 15% | 94% |
| Cn1cccc/c1=N\C(=O)N1C[C@H]2CC[C@@H](C1)O2 [Example 76] | 44% | 67% |
| Cc1cc/c(=N\C(=O)C2(C)COC2)n(C)c1 [Example 24] | 121% | 58% |
| Cc1c/c(=N\C(=O)C2(C)COC2)n(C)cc1C [Example 34] | 18% | 85% |
| COc1cc/c(=N\C(=O)C2(C)COC2)n(C)c1 [Example 28] | 47% | 98% |
| Cn1ccc(OC(F)(F)F)c/c1=N\C(=O)C1(C)COC1 [Example 14] | 21% | 7% |
| CN1CC(C)(C(=O)/N=c2\ccc(F)cn2C)C1 [Example 56] | 30% | 68% |
| Cc1c/c(=N\C(=O)C2(C)CN(C)C2)n(C)cc1F [Example 58] | 36% | 17% |
| CCOc1ccn(C)/c(=N/C(=O)C2(C)COC2)c1 [Example 12] | 19% | 10% |
| Cn1cccc/c1=N\C(=O)C1CCN(CC(F)(F)F)CC1 [Example 42] | 82% | 96% |
| CCC1(C(=O)/N=c2\cc(C(F)(F)F)ccn2C)COC1 [Example 7] | 40% | 66% |
| Cn1cc(F)cc/c1=N\C(=O)C1(C)CNC1 [Example 46] | 85% | 49% |
| CCn1ccc(F)c/c1=N\C(=O)C1(CC)COC1 [Example 19] | 112% | 19% |
| Cc1c/c(=N\C(=O)C2(C)CN(C)C2)n(C)cc1Br [Example 59] | 6% | 4% |
| COc1ccn(C)/c(=N/C(=O)C2(C)CNC2)c1 [Example 44] | 23% | 10% |
| Cc1c/c(=N\C(=O)C2(C)COC2)n(C)cc1Br [Example 38] | 21% | 33% |
| Cn1cccc/c1=N\C(=O)C1CCCO1 (stereo not shown) [Example 62] | 76% | 79% |
| Cn1cccc/c1=N\C(=O)C1CCNC1 (stereo not shown) [Example 67] | 62% | 72% |
| CC(C)N1CC(C)(C(=O)/N=c2\ccccn2C)C1 [Example 71, 3-Methyl-N-[(2E)-1-methylpyridin-2(1H)-ylidene]-1-(propan-2-yl)azetidine-3-carboxamide] | 64% | 73% |
| Cc1cc/c(=N\C(=O)C2(C)CNC2)n(C)c1 [Example 47] | 25% | 40% |
| CN1CCC(C(=O)/N=c2\ccccn2C)CC1 [Example 65] | 86% | 67% |
| CN1CCC(C(=O)/N=c2\ccccn2C)C1 (stereo not shown) [Example 70] | 77% | 31% |
| CN1CC(C(=O)/N=c2\ccccn2C)C1 [Example 69] | 89% | 41% |
| CCn1ccc(OC)c/c1=N\C(=O)C1(C)CNC1 [Example 45] | 25% | 35% |
| Cn1cccc/c1=N\C(=O)N1CCOCC1(C)C [Example 74, 3,3-Dimethyl-N-[(2E)-1-methylpyridin-2(1H)-ylidene]morpholine-4-carboxamide] | 30% | 64% |
